Source: US11919901B2 (Syndax Pharmaceuticals, Inc., priority 2021, dated 2024)

How the values were obtained:
Menin-MLL = Menin-MLL (Homo sapiens (Human), UniProt O00255); experiment: Determination of binding constants (Ki) to Menin-MLL (HTRF); conditions: HTRF, 0.25 nM H-FL-Menin, 3.2 nM FITC-MLL-4-43, 24 hr incubation; for Ki: read-out: Menin-MLL Ki HTRF Assay: Ki
hERG = hERG (Homo sapiens (Human), UniProt Q12809); experiment: Patch clamp assay (hERG tail currents, whole-cell); format: cell-based; conditions: hERG transfected HEK 293 cells; for hERG % Remaining 10 μM: 10 μM compound; for hERG % Remaining 30 μM: 30 μM compound
Chain of hERG (Q12809 whole entry): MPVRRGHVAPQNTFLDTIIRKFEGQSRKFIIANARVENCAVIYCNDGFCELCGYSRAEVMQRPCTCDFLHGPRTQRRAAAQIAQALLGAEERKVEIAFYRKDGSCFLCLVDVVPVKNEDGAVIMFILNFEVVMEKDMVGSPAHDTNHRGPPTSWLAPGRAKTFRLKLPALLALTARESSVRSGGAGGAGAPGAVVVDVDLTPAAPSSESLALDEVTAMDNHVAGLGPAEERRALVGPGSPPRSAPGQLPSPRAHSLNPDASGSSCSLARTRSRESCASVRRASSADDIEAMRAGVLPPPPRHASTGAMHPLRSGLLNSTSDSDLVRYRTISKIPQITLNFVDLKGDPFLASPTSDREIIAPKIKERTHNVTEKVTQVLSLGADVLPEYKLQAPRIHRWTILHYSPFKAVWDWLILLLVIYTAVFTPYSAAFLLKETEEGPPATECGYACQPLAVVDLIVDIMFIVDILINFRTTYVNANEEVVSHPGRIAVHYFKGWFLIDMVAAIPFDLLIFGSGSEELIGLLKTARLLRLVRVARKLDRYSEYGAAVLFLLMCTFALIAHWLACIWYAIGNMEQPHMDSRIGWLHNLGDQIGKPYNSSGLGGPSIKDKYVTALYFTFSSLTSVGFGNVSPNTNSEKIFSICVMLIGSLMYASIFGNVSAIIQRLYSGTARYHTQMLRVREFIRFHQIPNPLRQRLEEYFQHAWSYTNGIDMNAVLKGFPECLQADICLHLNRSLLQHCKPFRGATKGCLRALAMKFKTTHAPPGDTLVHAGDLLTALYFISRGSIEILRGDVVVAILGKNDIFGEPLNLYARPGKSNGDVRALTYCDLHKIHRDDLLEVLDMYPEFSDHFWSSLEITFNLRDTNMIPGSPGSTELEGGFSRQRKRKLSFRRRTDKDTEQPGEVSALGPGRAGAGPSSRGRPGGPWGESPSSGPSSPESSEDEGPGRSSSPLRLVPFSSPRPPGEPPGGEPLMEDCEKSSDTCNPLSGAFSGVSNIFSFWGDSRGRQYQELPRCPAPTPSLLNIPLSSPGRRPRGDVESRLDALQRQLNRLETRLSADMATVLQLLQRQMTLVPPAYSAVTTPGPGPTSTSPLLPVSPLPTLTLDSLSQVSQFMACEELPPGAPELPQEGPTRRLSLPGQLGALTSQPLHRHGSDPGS
Method: The 35 mm culture dishes upon which cells were seeded at a density allowing single cells to be recorded were placed on the dish holder of the microscope and continuously perfused (at approximately 1 mL/min) with the bath solution described in section 4.6. All solutions applied to cells including the pipette solution were maintained at room temperature (19° C. to 30° C.). After formation of a Gigaohm seal between the patch electrodes and individual hERG stably transfected HEK 293 cells (pipette resistance range: 2.0 MΩ2 to 7.0 MΩ; seal resistance range: >1GΩ) the cell membrane across the pipette tip was ruptured to assure electrical access to the cell interior (whole-cell patch-configuration). In case the quality of the seal was poor, the process of seal formation was repeated with a different cell and a new pipette. As soon as a stable seal could be established, hERG outward tail currents were measured upon depolarization of the cell membrane to +20 mV for 2s (activation of channels) from a holding potential of −80 mV and upon subsequent repolarization to −40 mV for 3 s. This voltage protocol (as shown below) was run at least 10 times at intervals of 10 s. If current density was judged to be too low for measurement, another cell was recorded.
During wash-in of the test item the voltage protocol indicated above was run continuously again at 10 s intervals until the steady-state level of block was reached.
The IC50 was determined by fitting the dose response curve with a 2-parameter logistic function (amax=100%).

Chain of Menin-MLL (O00255 whole entry): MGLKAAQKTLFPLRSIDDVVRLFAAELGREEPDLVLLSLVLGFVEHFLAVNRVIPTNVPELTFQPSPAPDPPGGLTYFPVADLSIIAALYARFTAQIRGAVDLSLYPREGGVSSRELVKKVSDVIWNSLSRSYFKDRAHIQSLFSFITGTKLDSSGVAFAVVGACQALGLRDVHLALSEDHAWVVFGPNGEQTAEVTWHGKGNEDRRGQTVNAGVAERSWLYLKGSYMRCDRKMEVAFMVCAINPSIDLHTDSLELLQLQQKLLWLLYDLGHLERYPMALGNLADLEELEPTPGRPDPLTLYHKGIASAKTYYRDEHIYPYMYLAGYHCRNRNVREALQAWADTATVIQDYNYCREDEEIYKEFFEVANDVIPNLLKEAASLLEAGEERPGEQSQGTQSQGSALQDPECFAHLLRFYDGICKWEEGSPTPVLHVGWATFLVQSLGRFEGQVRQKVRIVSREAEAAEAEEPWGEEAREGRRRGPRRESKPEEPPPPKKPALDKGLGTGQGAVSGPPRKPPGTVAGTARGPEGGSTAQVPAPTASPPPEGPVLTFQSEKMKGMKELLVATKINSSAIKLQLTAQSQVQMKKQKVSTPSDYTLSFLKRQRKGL

| Structure (SMILES) | EC50 (Menin-MLL) [nM] | Ki (Menin-MLL) [nM] | hERG % Remaining 10 μM (hERG) | hERG % Remaining 30 μM (hERG) | IC50 (hERG) [nM] |
| --- | --- | --- | --- | --- | --- |
| CCN(C(=O)c1cc(F)ccc1Oc1cncnc1N1CC2(CCN(C[C@@H]3CC[C@@H](NS(=O)(=O)c4ccccc4OC)CO3)CC2)C1)C(C)C [Compound 65, N-Ethyl-5-fluoro-N-isopropyl-2-((4-(7-(((2S,5R)-5-((2-methoxyphenyl)sulfonamido)tetrahydro-2H-pyran-2-yl)methyl)-2,7-diazaspiro[3.5]nonan-2-yl)pyrimidin-5-yl)oxy)benzamide] | < 50 | < 1 | ++ (“++” means ≥33% and <66%) | + (“+” means <33%) | – |
| CCN(C(=O)c1cc(F)ccc1Oc1cncnc1N1CC2(CCN(C[C@@H]3CC[C@@H](NS(=O)(=O)c4cccc(OC)c4)CO3)CC2)C1)C(C)C [Compound 66, N-Ethyl-5-fluoro-N-isopropyl-2-((4-(7-(((2S,5R)-5-((3-methoxyphenyl)sulfonamido)tetrahydro-2H-pyran-2-yl)methyl)-2,7-diazaspiro[3.5]nonan-2-yl)pyrimidin-5-yl)oxy)benzamide] | < 50 | < 1 | + (“+” means <33%) | + (“+” means <33%) | – |
| CCN(C(=O)c1cc(F)ccc1Oc1cncnc1N1CC2(CCN(C[C@@H]3CC[C@@H](NS(=O)(=O)c4cnn(C)c4)CO3)CC2)C1)C(C)C [Compound 68, N-Ethyl-5-fluoro-N-isopropyl-2-((4-(7-(((2S,5R)-5-((1-methyl-1H-pyrazole)-4-sulfonamido)tetrahydro-2H-pyran-2-yl)methyl)-2,7-diazaspiro[3.5]nonan-2-yl)pyrimidin-5-yl)oxy)benzamide] | < 50 | < 1 | +++ (“+++” means ≥66%) | +++ (“+++” means ≥66%) | ≥ 50000 |
| CCN(C(=O)c1cc(F)ccc1Oc1cncnc1N1CC2(CCN(C[C@@H]3CC[C@@H](NS(=O)(=O)N4CCC4)CO3)CC2)C1)C(C)C [Compound 69, 2-((4-(7-(((2S,5R)-5-(Azetidine-1-sulfonamido)tetrahydro-2H-pyran-2-yl)methyl)-2,7-diazaspiro[3.5]nonan-2-yl)pyrimidin-5-yl)oxy)-N-ethyl-5-fluoro-N-isopropylbenzamide] | < 50 | < 1 | +++ (“+++” means ≥66%) | ++ (“++” means ≥33% and <66%) | 25000 to 50000 |
| CCN(C(=O)c1cc(F)ccc1Oc1cncnc1N1CC2(CCN(C[C@@H]3CC[C@@H](NS(=O)(=O)c4csc(C)n4)CO3)CC2)C1)C(C)C [Compound 71, N-Ethyl-5-fluoro-N-isopropyl-2-((4-(7-(((2S,5R)-5-((2-methylthiazole)-4-sulfonamido)tetrahydro-2H-pyran-2-yl)methyl)-2,7-diazaspiro[3.5]nonan-2-yl)pyrimidin-5-yl)oxy)benzamide] | < 50 | < 1 | +++ (“+++” means ≥66%) | ++ (“++” means ≥33% and <66%) | – |
| CCN(C(=O)c1cc(F)ccc1Oc1cncnc1N1CC2(CCN(C[C@@H]3CC[C@@H](NS(=O)(=O)c4cnc(C)o4)CO3)CC2)C1)C(C)C [Compound 72, N-Ethyl-5-fluoro-N-isopropyl-2-((4-(7-(((2S,5R)-5-((2-methyloxazole)-5-sulfonamido)tetrahydro-2H-pyran-2-yl)methyl)-2,7-diazaspiro[3.5]nonan-2-yl)pyrimidin-5-yl)oxy)benzamide] | – | < 1 | ++ (“++” means ≥33% and <66%) | + (“+” means <33%) | – |
| CCN(C(=O)c1cc(F)ccc1Oc1cncnc1N1CC2(CCN(C[C@@H]3CC[C@@H](NS(=O)(=O)c4c[nH]c(=O)cc4C)CO3)CC2)C1)C(C)C [Compound 75, N-Ethyl-5-fluoro-N-isopropyl-2-((4-(7-(((2S,5R)-5-((4-methyl-6-oxo-1,6-dihydropyridine)-3-sulfonamido)tetrahydro-2H-pyran-2-yl)methyl)-2,7-diazaspiro[3.5]nonan-2-yl)pyrimidin-5-yl)oxy)benzamide] | – | < 1 | – | +++ (“+++” means ≥66%) | – |
| CCN(C(=O)c1cc(F)ccc1Oc1cncnc1N1CC2(CCN(C[C@@H]3CC[C@@H](NS(=O)(=O)NC)CO3)CC2)C1)C(C)C [Compound 76, N-Ethyl-5-fluoro-N-isopropyl-2-((4-(7-(((2S,5R)-5-((N-methylsulfamoyl)amino)tetrahydro-2H-pyran-2-yl)methyl)-2,7-diazaspiro[3.5]nonan-2-yl)pyrimidin-5-yl)oxy)benzamide] | < 50 | < 1 | +++ (“+++” means ≥66%) | +++ (“+++” means ≥66%) | – |
| CC(C)N(C(=O)c1cc(F)ccc1Oc1cncnc1N1CC2(CCN(C[C@@H]3CC[C@@H](NS(=O)(=O)N4CCOCC4)CO3)CC2)C1)C(C)C [Compound 78, 5-Fluoro-N,N-diisopropyl-2-((4-(7-(((2S,5R)-5-(morpholine-4-sulfonamido)tetrahydro-2H-pyran-2-yl)methyl)-2,7-diazaspiro[3.5]nonan-2-yl)pyrimidin-5-yl)oxy)benzamide] | < 50 | < 1 | +++ (“+++” means ≥66%) | +++ (“+++” means ≥66%) | – |
| Cc1ncc(S(=O)(=O)N[C@@H]2CC[C@@H](CN3CCC4(CC3)CN(c3ncncc3Oc3ccc(F)cc3C(=O)N(C(C)C)C(C)C)C4)OC2)o1 [Compound 80, 5-Fluoro-N,N-diisopropyl-2-((4-(7-(((2S,5R)-5-((2-methyloxazole)-5-sulfonamido)tetrahydro-2H-pyran-2-yl)methyl)-2,7-diazaspiro[3.5]nonan-2-yl)pyrimidin-5-yl)oxy)benzamide] | – | < 1 | ++ (“++” means ≥33% and <66%) | + (“+” means <33%) | – |
| Cc1nc(S(=O)(=O)N[C@@H]2CC[C@@H](CN3CCC4(CC3)CN(c3ncncc3Oc3ccc(F)cc3C(=O)N(C(C)C)C(C)C)C4)OC2)cs1 [Compound 81, 5-Fluoro-N,N-diisopropyl-2-((4-(7-(((2S,5R)-5-((2-methylthiazole)-4-sulfonamido)tetrahydro-2H-pyran-2-yl)methyl)-2,7-diazaspiro[3.5]nonan-2-yl)pyrimidin-5-yl)oxy)benzamide] | – | < 1 | ++ (“++” means ≥33% and <66%) | ++ (“++” means ≥33% and <66%) | – |
| CC(C)N(C(=O)c1cc(F)ccc1Oc1cncnc1N1CC2(CCN(C[C@@H]3CC[C@@H](NS(=O)(=O)c4cnn(C)c4Cl)CO3)CC2)C1)C(C)C [Compound 82, 2-((4-(7-(((2S,5R)-5-((5-Chloro-1-methyl-1H-pyrazole)-4-sulfonamido)tetrahydro-2H-pyran-2-yl)methyl)-2,7-diazaspiro[3.5]nonan-2-yl)pyrimidin-5-yl)oxy)-5-fluoro-N,N-diisopropylbenzamide] | – | < 1 | ++ (“++” means ≥33% and <66%) | + (“+” means <33%) | – |
| CC(C)N(C(=O)c1cc(F)ccc1Oc1cncnc1N1CC2(CCN(C[C@@H]3CC[C@@H](NS(=O)(=O)c4cnn(C5CC5)c4)CO3)CC2)C1)C(C)C [Compound 83, 2-((4-(7-(((2S,5R)-5-((1-Cyclopropyl-1H-pyrazole)-4-sulfonamido)tetrahydro-2H-pyran-2-yl)methyl)-2,7-diazaspiro[3.5]nonan-2-yl)pyrimidin-5-yl)oxy)-5-fluoro-N,N-diisopropylbenzamide] | – | < 1 | +++ (“+++” means ≥66%) | ++ (“++” means ≥33% and <66%) | – |
| Cc1ncc(S(=O)(=O)N[C@@H]2CC[C@@H](CN3CCC4(CC3)CN(c3ncncc3Oc3ccc(F)cc3C(=O)N(C(C)C)C(C)C)C4)OC2)s1 [Compound 84, 5-Fluoro-N,N-diisopropyl-2-((4-(7-(((2S,5R)-5-((2-methylthiazole)-5-sulfonamido)tetrahydro-2H-pyran-2-yl)methyl)-2,7-diazaspiro[3.5]nonan-2-yl)pyrimidin-5-yl)oxy)benzamide] | – | < 1 | ++ (“++” means ≥33% and <66%) | + (“+” means <33%) | – |
| CC(C)N(C(=O)c1cc(F)ccc1Oc1cncnc1N1CC2(CCN(C[C@@H]3CC[C@@H](NS(=O)(=O)c4cnn(C(F)F)c4)CO3)CC2)C1)C(C)C [Compound 85, 2-((4-(7-(((2S,5R)-5-((1-(Difluoromethyl)-1H-pyrazole)-4-sulfonamido)tetrahydro-2H-pyran-2-yl)methyl)-2,7-diazaspiro[3.5]nonan-2-yl)pyrimidin-5-yl)oxy)-5-fluoro-N,N-diisopropylbenzamide] | – | < 1 | ++ (“++” means ≥33% and <66%) | + (“+” means <33%) | – |
| CC(C)N(C(=O)c1cc(F)ccc1Oc1cncnc1N1CC2(CCN(C[C@@H]3CC[C@@H](NS(=O)(=O)c4cnn(C)c4)CO3)CC2)C1)C(C)C [Compound 86, 5-Fluoro-N,N-diisopropyl-2-((4-(7-(((2S,5R)-5-((1-methyl-1H-pyrazole)-4-sulfonamido)tetrahydro-2H-pyran-2-yl)methyl)-2,7-diazaspiro[3.5]nonan-2-yl)pyrimidin-5-yl)oxy)benzamide] | – | < 1 | +++ (“+++” means ≥66%) | +++ (“+++” means ≥66%) | ≥ 50000 |
